Data from patent publication US8324251B2, “Cyclic modulators of chemokine receptor activity” (Bristol-Myers Squibb Company, priority 2006, dated 2012).
Structures can show the parent of a compound that is named as a salt.

Molecular target: T1, CCR1 (Homo sapiens, UniProt P32246)
T1 construct: the THP-1 cell line, which expresses the endogenous CCR1 receptor; endogenous in cells; host or cells: THP-1 cells (human monocytic cell line)
T1 sequence (P32246 1-355): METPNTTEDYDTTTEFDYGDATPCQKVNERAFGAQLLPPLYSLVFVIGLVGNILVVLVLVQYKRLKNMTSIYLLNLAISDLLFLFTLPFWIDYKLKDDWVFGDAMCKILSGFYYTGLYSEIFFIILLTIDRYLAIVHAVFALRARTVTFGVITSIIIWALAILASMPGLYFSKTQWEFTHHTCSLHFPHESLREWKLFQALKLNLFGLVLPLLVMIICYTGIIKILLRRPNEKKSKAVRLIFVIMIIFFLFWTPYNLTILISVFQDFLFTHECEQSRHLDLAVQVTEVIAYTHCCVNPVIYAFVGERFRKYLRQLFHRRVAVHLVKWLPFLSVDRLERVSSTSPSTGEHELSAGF
Assay: Antagonism of MIP-1α binding to human THP-1 cells (125-I MIP-1α radioligand binding)
Details: 125-I labeled human MIP-1α, THP-1 cells expressing endogenous CCR1; read-out: CCR1 Binding Ki (n = 1 unless otherwise noted)
Method: Antagonism of MIP-1α Binding to Human THP-1 Cells
Compounds of the present invention have activity in the antagonism of MIP-1α binding to human THP-1 cells described here.
Millipore filter plates (#MABVN1250) are treated with 100 μl of binding buffer (0.5% bovine serum albumin, 20 mM HEPES buffer and 5 mM magnesium chloride in RPMI 1640 media) for thirty minutes at room temperature. To measure binding, 50 μl of binding buffer, with or without a known concentration of compound, is combined with 50 μl of ^125-I labeled human MIP-1α (to give a final concentration of […] radioligand) and 50 μl of binding buffer containing 5×10^5 cells. Cells used for such binding assays can include the THP-1 cell line, which expresses the endogenous CCR1 receptor, or human peripheral blood mononuclear cells, isolated by Ficoll-Hypaque gradient centrifugation, or human monocytes (Weiner et al., J. Immunol. Methods, 1980, 36, 89). The mixture of compound, cells and radioligand is incubated at room temperature for thirty minutes. Plates are placed onto a vacuum manifold, vacuum applied, and the plates washed three times with binding buffer containing 0.5M NaCl. The plastic skirt is removed from the plate, the plate allowed to air dry, the wells punched out and counted. The percent inhibition of binding is calculated using the total counts obtained in the absence of any competing compound and the background binding determined by addition of 100 nM MIP-1α in place of the test compound.
Compounds of the present invention were tested in the assay described immediately above and the results, including results from the chiral separation of Example 1c, shown in Table 2 below were obtained.

SMILES | Ki [nM]
OC(COc1ccc(Cl)cc1)C1CCN(Cc2ccc(Cl)cc2)CC1 (racemic) [Example 1i, 1-(1-(4-Chlorobenzyl)piperidin-4-yl)-2-(4-chlorophenoxy)ethanol, TFA salt] | 111
NC(=O)Nc1cc(Cl)ccc1OCC(O)C1CCN(Cc2ccc(Cl)c(Cl)c2)CC1 (single isomer, unassigned) [1c Enantiomer 2] | 6.1 ± 0.71
OC(COc1ccc(Cl)cc1)C1CCN(Cc2ccccc2)CC1 (racemic) [Example 1l, 1-(1-Benzylpiperidin-4-yl)-2-(4-chlorophenoxy)ethanol, TFA salt] | 6440

Continued, values first:

Ki [nM] | SMILES
4.49 ± 1.15 | NC(=O)Nc1cc(Cl)ccc1OCC(O)C1CCN(Cc2ccc(Cl)cc2)CC1 (racemic) [Example 1a, 1-(5-Chloro-2-(2-(1-(4-chlorobenzyl)piperidin-4-yl)-2-hydroxyethoxy)phenyl)urea, TFA salt]
1500 | NC(=O)Nc1cc(Cl)ccc1OCC(O)C1CCN(Cc2ccc(Cl)c(Cl)c2)CC1 (single isomer, unassigned) [1c Enantiomer 1]
